Experiments:
[1] = target: T1, Glucocorticoid receptor (Homo sapiens, UniProt P04150); test: Agonist activity at glucocorticoid receptor in human MDA-kb2 cells transfected with MMTV-LUC assessed as induction of MMTV-LTR/promoter linked LUC gene by luciferase transactivation assay; type: functional, cell-based; settings: read-out: EC50
T1 sequence (P04150 whole entry): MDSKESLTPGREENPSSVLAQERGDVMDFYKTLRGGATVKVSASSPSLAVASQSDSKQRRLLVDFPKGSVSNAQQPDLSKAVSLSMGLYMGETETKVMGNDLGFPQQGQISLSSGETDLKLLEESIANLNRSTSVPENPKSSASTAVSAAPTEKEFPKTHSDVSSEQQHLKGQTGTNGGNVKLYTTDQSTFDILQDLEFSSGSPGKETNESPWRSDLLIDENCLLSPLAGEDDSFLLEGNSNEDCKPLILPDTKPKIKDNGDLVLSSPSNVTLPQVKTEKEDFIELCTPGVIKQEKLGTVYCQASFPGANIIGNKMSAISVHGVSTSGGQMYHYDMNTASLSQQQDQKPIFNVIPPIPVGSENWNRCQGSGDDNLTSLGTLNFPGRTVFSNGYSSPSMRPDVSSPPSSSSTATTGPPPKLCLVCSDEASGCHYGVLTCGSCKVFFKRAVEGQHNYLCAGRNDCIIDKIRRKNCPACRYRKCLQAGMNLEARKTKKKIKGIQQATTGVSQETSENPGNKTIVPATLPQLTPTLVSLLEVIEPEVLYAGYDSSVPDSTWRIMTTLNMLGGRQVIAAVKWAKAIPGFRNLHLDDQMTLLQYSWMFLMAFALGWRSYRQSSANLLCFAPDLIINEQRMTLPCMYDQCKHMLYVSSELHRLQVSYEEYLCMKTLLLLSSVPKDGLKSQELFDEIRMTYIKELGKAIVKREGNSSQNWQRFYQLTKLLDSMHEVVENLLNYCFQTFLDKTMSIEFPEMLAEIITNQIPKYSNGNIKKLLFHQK

[2] = target: T1, Glucocorticoid receptor
Description: Binding affinity to human glucocorticoid receptor by fluorescence polarization competitive binding assay

[3] = target: T1, Glucocorticoid receptor; test: Agonist activity at glucocorticoid receptor in human fibroblast assessed as inhibition of IL-1-beta-induced IL6 production treated 1 hr before IL1-beta challenge measured after 24 hrs by transrepression assay; type: functional

SMILES: OC(c1ccc(F)c(Cl)c1)(c1ccc2c(cnn2-c2ccc(F)cc2)c1)C(F)(F)F (single isomer, unassigned; (-)) [1-(3-CHLORO-4-FLUOROPHENYL)-2,2,2-TRIFLUORO-1-(1-(4-FLUOROPHENYL)-1H-INDAZOL-5-YL)ETHANOL (ENANTIOMERIC MIX)]
- EC50 [1]: 1100 nM
- IC50 [2]: 49 nM
- EC50 [3]: 93 nM

Source: ChEMBL document CHEMBL1157802, “5-Functionalized indazoles as glucocorticoid receptor agonists” (Bioorg Med Chem Lett, 2010)
